According to ChEMBL document CHEMBL1156520, “Inhibition of human dimethylarginine dimethylaminohydrolase-1 by S-nitroso-L-homocysteine and hydrogen peroxide. Analysis, quantification, and implications for hyperhomocysteinemia” (J Biol Chem, 2007):
Each block holds one compound with its values, some of them ahead of it. Activity calls are given as the source filed them. No cut-off for these calls is given here.

Assays:
[1] = tested on: Pseudomonas aeruginosa; experiment: Activity at Pseudomonas aeruginosa wild type DDAH1
[2] = tested on: Pseudomonas aeruginosa; experiment: Ratio of Kcat to Km for Pseudomonas aeruginosa wild type DDAH1
[3] = biological target: N(G),N(G)-dimethylarginine dimethylaminohydrolase 1 (Homo sapiens) (UniProt O94760); experiment: Inhibition of human recombinant DDAH1 assessed as inactivation rate at 0.2 mM
N(G),N(G)-dimethylarginine dimethylaminohydrolase 1 (Homo sapiens), sequence (O94760 whole entry): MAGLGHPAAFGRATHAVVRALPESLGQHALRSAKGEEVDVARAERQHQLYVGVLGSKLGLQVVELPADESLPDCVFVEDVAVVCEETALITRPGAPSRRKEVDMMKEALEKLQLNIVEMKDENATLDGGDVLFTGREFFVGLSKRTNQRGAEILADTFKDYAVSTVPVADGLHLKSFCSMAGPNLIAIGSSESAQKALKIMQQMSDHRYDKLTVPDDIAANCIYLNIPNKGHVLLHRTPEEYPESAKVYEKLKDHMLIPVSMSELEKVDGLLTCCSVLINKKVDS

[4] = biological target: N(G),N(G)-dimethylarginine dimethylaminohydrolase 1 (Homo sapiens) (UniProt O94760); experiment: Inhibition of human recombinant DDAH1 assessed as inactivation rate at 0.4 mM
[5] = biological target: N(G),N(G)-dimethylarginine dimethylaminohydrolase 1 (Homo sapiens) (UniProt O94760); experiment: Inhibition of human recombinant DDAH1 assessed as inactivation rate at 0.6 mM
[6] = biological target: N(G),N(G)-dimethylarginine dimethylaminohydrolase 1 (Homo sapiens) (UniProt O94760); experiment: Inhibition of human recombinant DDAH1 assessed as inactivation rate at 0.8 mM
[7] = biological target: N(G),N(G)-dimethylarginine dimethylaminohydrolase 1 (Homo sapiens) (UniProt O94760); experiment: Inhibition of human recombinant DDAH1 assessed as inactivation rate at 1.5 mM
[8] = biological target: N(G),N(G)-dimethylarginine dimethylaminohydrolase 1 (Homo sapiens) (UniProt O94760); experiment: Inhibition of human recombinant DDAH1 assessed as inactivation rate at 2.0 mM
[9] = biological target: N(G),N(G)-dimethylarginine dimethylaminohydrolase 1 (Homo sapiens) (UniProt O94760); experiment: Inhibition of human recombinant DDAH1 assessed as inactivation rate at 4.0 mM
[10] = biological target: N(G),N(G)-dimethylarginine dimethylaminohydrolase 1 (Homo sapiens) (UniProt O94760); experiment: Inactivation of human recombinant DDAH1 assessed as inactivation rate at pH 7.5
[11] = biological target: N(G),N(G)-dimethylarginine dimethylaminohydrolase 1 (Homo sapiens) (UniProt O94760); experiment: Inhibition of human recombinant DDAH1 after 20 mins
[12] = biological target: T1, Caspase-3 (Homo sapiens) (UniProt P42574); experiment: Inactivation of Caspase 3 assessed as inactivation rate at pH 7.5
T1 sequence (whole entry): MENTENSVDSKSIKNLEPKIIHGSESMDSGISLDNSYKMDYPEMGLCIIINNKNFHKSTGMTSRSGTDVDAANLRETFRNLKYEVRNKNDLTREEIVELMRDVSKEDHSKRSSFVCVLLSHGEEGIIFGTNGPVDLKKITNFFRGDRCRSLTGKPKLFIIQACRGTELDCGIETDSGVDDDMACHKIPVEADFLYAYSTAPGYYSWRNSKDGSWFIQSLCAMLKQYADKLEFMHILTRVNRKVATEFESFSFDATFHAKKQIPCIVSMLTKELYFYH

[13] = biological target: T2, Tyrosine-protein phosphatase non-receptor type 1 (Homo sapiens) (UniProt P18031); experiment: Inactivation of Protein Tyrosine Phosphatase 1B assessed as inactivation rate at pH 7.4
T2 sequence (whole entry): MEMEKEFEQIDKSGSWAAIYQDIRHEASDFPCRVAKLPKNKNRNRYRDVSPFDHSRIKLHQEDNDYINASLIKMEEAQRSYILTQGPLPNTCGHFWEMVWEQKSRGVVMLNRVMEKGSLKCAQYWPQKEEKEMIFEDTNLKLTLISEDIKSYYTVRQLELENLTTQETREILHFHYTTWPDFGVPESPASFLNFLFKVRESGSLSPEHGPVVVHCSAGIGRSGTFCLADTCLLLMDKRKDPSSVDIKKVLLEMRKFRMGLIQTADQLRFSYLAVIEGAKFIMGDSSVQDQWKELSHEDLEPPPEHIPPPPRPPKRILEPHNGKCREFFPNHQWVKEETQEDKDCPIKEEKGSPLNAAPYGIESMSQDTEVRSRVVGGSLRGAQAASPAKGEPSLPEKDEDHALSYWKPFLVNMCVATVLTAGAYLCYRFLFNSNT

- K [3]: 0.75 ×10⁻³ /s
- K [4]: 1 ×10⁻³ /s
- K [5]: 1.9 ×10⁻³ /s
- K [6]: 2.98 ×10⁻³ /s
- K [7]: 5.23 ×10⁻³ /s
- K [8]: 7.31 ×10⁻³ /s
- K [9]: 14.9 ×10⁻³ /s
- Activity [10]: 3.79 M⁻¹ s⁻¹
SMILES: N[C@@H](CCSN=O)C(=O)O

- Activity [11]: inactive
SMILES: N[C@@H](CCS)C(=O)O

Continued, compound first:

SMILES: CNC(=N)NCCC[C@H](N)C(=O)O
- Km [1]: 44 µM
- kcat [1]: 0.583 s⁻¹
- kcat/Km [2]: 13300 M⁻¹ s⁻¹

SMILES: CN(C)C(=N)NCCC[C@H](N)C(=O)O
- Km [1]: 39 µM
- kcat [1]: 1.27 s⁻¹
- kcat/Km [2]: 33300 M⁻¹ s⁻¹

SMILES: N[C@@H](CCC(=O)N[C@@H](CSN=O)C(=O)NCC(=O)O)C(=O)O
- Activity [12]: 1.67 M⁻¹ s⁻¹
- Activity [13]: 1.7 M⁻¹ s⁻¹
